Results from US20040138301A1, “Chemical uncouplers for the treatment of obesity” (priority 2002, published 2004).
pEC50: −log10 of the molar value.

Test system: HEP-G2 cells
Assay: cells
Settings: for pEC50 / Emax / EC (Emax): Homo sapiens; for pEC50: HepG2, 3 h, read-out: HEP-G2 EC50, HEP-G2 cells, glucose utilisation, 3 hours incubation; for Emax: HepG2, read-out: HEP-G2 Emax (% of FCCP), HEP-G2 cells, maximal stimulation relative to FCCP; for EC (Emax): HepG2, read-out: HEP-G2 Emax (μM), HEP-G2 cells, concentration at which Emax is achieved (CEmax)
How it was run: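 HEP-G2 cells were treated with compound for 3 h at 37 °C in MEM/0.5% BSA containing 10 μCi/ml D-(3-^3H(N))-glucose, then lysed with TCA; ^3H-water released via the respiratory chain was recovered by evaporation at 50 °C and counted. Values are corrected for non-specific and basal counts, expressed as % of maximal FCCP or DNP stimulation, and EC50 is from a variable-slope sigmoidal fit.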

SMILES	pEC50	Emax [%]	EC (Emax) [µM]	HEP-G2 Tox (human, 3 h)
N#CC(C#N)=NNc1ccc(OC(F)(F)F)cc1 [Example 27, Carbonylcyanide p-Trifluoromethoxy-Phenylhydrazone, reference compound]	5.52	100	30	
N#CC(C#N)=Cc1c[nH]c2ccc(Cl)cc12 [Example 30, 2-((5-Chloro-1H-Indol-3-Yl)Methylene)Malononitrile]	4.71	60	100	
N#CC(C#N)=Cc1c(Cl)[nH]c2ccccc12 [Example 34, 2-(2-Chloro-1H-Indol-3-Ylmethylene)-Malononitrile]	5.85	80	10	
Cc1c(Br)cc(C(C)(C)C)c(O)c1C(=O)Nc1ccc([N+](=O)[O-])cc1Cl [Example 37, 3-Bromo-5-Tert-Butyl-N-(2-Chloro-4-Nitro-Phenyl)-6-Hydroxy-2-Methyl-Benzamide]	7.46	100	1	
Cc1c(Cl)cc(C(C)(C)C)c(O)c1C(=O)Nc1ccc([N+](=O)[O-])cc1C(F)(F)F [Example 50, 3-Tert-Butyl-5-Chloro-2-Hydroxy-6-Methyl-N-(4-Nitro-2-Trifluoromethyl-Phenyl)-Benzamide]	7.52	82	0.1	
Cc1cc(C(C#N)c2ccc(Cl)cc2)c(Cl)cc1NC(=O)c1c(C)c(Br)cc(C(C)(C)C)c1O (stereo not shown) [Example 56, 3-Bromo-5-Tert-Butyl-N-{5-Chloro-4-[(4-Chloro-Phenyl)-Cyano-Methyl]-2-Methyl-Phenyl}-6-Hydroxy-2-Methyl-Benzamide]	5.18	100	100	
Cc1c(Br)cc(C(C)(C)C)c(O)c1C(=O)Nc1ccc([N+](=O)[O-])cc1C(F)(F)F [Example 58, 3-Bromo-5-Tert-Butyl-6-Hydroxy-2-Methyl-N-(4-Nitro-2-Trifluoromethyl-Phenyl)-Benzamide]	7.52	100	0.1	
CC(=C(C#N)C#N)c1cc(C(C)(C)C)c(O)c(C(C)(C)C)c1 [Example 75, 2-[1-(3,5-Di-Tert-Butyl-4-Hydroxy-Phenyl)-Ethylidene]-Malononitrile]	6.44	120	30	Tox 0.3 mM
CC(C)(C)c1cc(/C=C(\C#N)c2ccc([N+](=O)[O-])cc2)cc(C(C)(C)C)c1O [Example 77, 3-(3,5-Di-Tert-Butyl-4-Hydroxy-Phenyl)-2-(4-Nitro-Phenyl)-Acrylonitrile]	6.51	100	3	
